Measured values published in PubChem BioAssay AID1996.
Converted amounts (≈) assume the structure as drawn.

Details: buffer; pH 7.4; 200.0 µM

Structure (SMILES)	solubility kinetic
CCOc1ccc(S(=O)(=O)NC(C)C(=O)NCc2ccncc2)cc1 (stereo not given)	> 54.5 µg/mL
O=C(CCc1ccc(S(=O)(=O)N2CCOCC2)cc1)Nc1c(F)cccc1F	> 61.6 µg/mL
CCOc1ccc(C(=O)NCCNC(=O)c2ccc(OCC)cc2)cc1	1.5 µg/mL (≈ 4.21 µM)
CC(C)C(C)NC(=O)COc1ncnc2sccc12 (stereo not given)	> 41.9 µg/mL
O=[N+]([O-])c1ccc(Nc2nc(Cl)nc(NCCO)n2)cc1	2.6 µg/mL (≈ 8.37 µM)
COC(=O)c1cc(S(=O)(=O)NCc2cccs2)c[nH]1	> 45.1 µg/mL
Cc1nc([N+](=O)[O-])c(C(=O)O)n1C	> 27.8 µg/mL
Nc1nc(F)cc(N2CCCCCC2)n1	> 31.5 µg/mL
CN1C(=S)SC2CS(=O)(=O)CC21C (stereo not given)	> 35.6 µg/mL
O=C(CNC(=O)c1ccco1)Nc1ccc(F)c(Cl)c1	2.5 µg/mL (≈ 8.43 µM)
CCOc1ccc(NC(=O)NC2CCCCCCC2)cc1	0.9 µg/mL (≈ 3.1 µM)
O=C1NC(C(F)(F)F)(C(F)(F)F)N=C2SC=CN12	41.6 µg/mL (≈ 143 µM)
COC(=O)c1ccc(S(=O)(=O)N2CCN(C)CC2)n1C	> 45.2 µg/mL
O=C(CN1CCN(c2ccccn2)CC1)Nc1cc(F)ccc1F	> 49.9 µg/mL
CCOC(=O)c1c(C)[nH]c(-c2csc(C)n2)c1C	27.5 µg/mL (≈ 104 µM)
Cc1cnc(C(=O)N2CCN(c3ccc(C(F)(F)F)cn3)CC2)cn1	48 µg/mL (≈ 137 µM)
CCN(CC)C(=O)c1ccc(NC(=O)c2c(C)noc2C)cc1	> 47.3 µg/mL
COc1ccc(C(=O)C(C)OC(=O)CNC(=O)C2CCCCC2)cc1 (stereo not given)	> 52.1 µg/mL
COc1ccc(CNC(=O)c2cc(C(C)=O)c[nH]2)cc1	12.9 µg/mL (≈ 47.4 µM)
Cc1ccc(S(=O)(=O)N2CCOCC2)cc1NC(=O)COC(=O)/C=C/c1ccc(F)cc1	10.3 µg/mL (≈ 22.3 µM)
O=C(NC1CC1)c1ccc(N2CCCCC2)c([N+](=O)[O-])c1	> 43.4 µg/mL
Cc1ccc(CC(=O)NCCCn2ccnc2)cc1	> 38.6 µg/mL
CSCCC(NC(=O)c1ccco1)C(=O)NCCc1ccc(Cl)cc1 (stereo not given)	19.6 µg/mL (≈ 51.5 µM)
COc1ccc(CN2CCN(C(=O)c3ccc4c(c3)CCC4)CC2)cc1OC	39.5 µg/mL (≈ 104 µM)

Structure (SMILES)	solubility kinetic
Cc1ccc(S(=O)(=O)N[C@H](C(=O)OCC(=O)NC(=O)C2CCCCC2)C(C)C)cc1	11.4 µg/mL (≈ 26 µM)
CCCCn1c(=O)c(C(=O)NCc2ccco2)c(O)c2ccccc21	< 0.4 µg/mL
Cc1ccc(OC(C)C(=O)Nc2cc(C)on2)cc1 (stereo not given)	36.2 µg/mL (≈ 139 µM)
CC1CC(C)CN(C(=O)COc2ccc([N+](=O)[O-])cc2Cl)C1 (stereo not given)	11 µg/mL (≈ 33.7 µM)
CCOC(=O)c1csc(NC(=O)CN2CCN(C)CC2)n1	> 46.9 µg/mL
COC(=O)c1ccc(NC(=O)CCN2CCOCC2)cc1	> 43.9 µg/mL
CCOc1cc(N2CCOCC2)c(OCC)cc1NC(=O)CSc1ncccc1C(=O)O	> 69.2 µg/mL
COc1cc(CC(=O)OCC(=O)N(C)C2CCCCC2)cc(OC)c1OC	52.4 µg/mL (≈ 138 µM)
CN(CC(=O)Nc1cccc(S(=O)(=O)N2CCCC2)c1)Cc1ccccc1	17.8 µg/mL (≈ 45.9 µM)
Cc1cc(NC(=O)c2ccc(C)o2)no1	> 30.9 µg/mL
O=C(COC(=O)c1ccc([N+](=O)[O-])cc1)NCCC1=CCCCC1	3.1 µg/mL (≈ 9.33 µM)
CCC(C)(C)NC(=O)CN(C(=O)c1ccc(N2CCCC2)nc1)c1ccc(F)cc1	60.7 µg/mL (≈ 147 µM)
COc1ccc(C)cc1NC(=S)NC(C)c1ccc(OC)c(OC)c1 (stereo not given)	13.3 µg/mL (≈ 36.9 µM)
CCc1ccc(N2C(=O)C(Cl)=C(N3CCCCCC3)C2=O)cc1	1.7 µg/mL (≈ 5.11 µM)
CCOC(=O)c1c(N)sc(C(=O)N(CC)CC)c1C	> 42.7 µg/mL
CCOc1ccc(N2CC(C(=O)N3CCCCC3)CC2=O)cc1 (stereo not given)	46.4 µg/mL (≈ 147 µM)
CN(CC(=O)NC1CCCCCCC1)S(=O)(=O)c1cnc[nH]1	> 49.3 µg/mL
O=C(NCC1CCCO1)c1ccc(NC(=O)c2cccc(Cl)c2)cc1 (stereo not given)	2.5 µg/mL (≈ 6.97 µM)
CC(C)NCC(O)COc1cccc2[nH]ccc12 (stereo not given)	> 37.2 µg/mL
CSc1nc(C)cc(Oc2ccc(OCC(N)=O)nn2)n1	> 46.1 µg/mL
Cc1cccc(C)c1OCc1cc(C(=O)NCC2CC2)no1	4.6 µg/mL (≈ 15.3 µM)
CCN(C(=O)c1ccco1)C1C2CC3CC(C2)CC1C3 (stereo not given)	26.1 µg/mL (≈ 95.5 µM)
COc1ccc(S(=O)(=O)NCCCN2CCOCC2)cc1F	> 49.9 µg/mL
O=C(COC(=O)Cc1ccc(S(=O)(=O)N2CCOCC2)s1)Nc1ccccc1Cl	> 68.8 µg/mL

Structure (SMILES)	solubility kinetic
Cc1ccc(C(=O)Nc2ccc(C)c(S(=O)(=O)N3CCOCC3)c2)c(C)c1	37.9 µg/mL (≈ 97.6 µM)
Cc1cccc(NC(=O)NCC(c2ccco2)N2CCCCC2)c1 (stereo not given)	> 49.1 µg/mL
CNC(=S)Nc1ccc(Cc2ccncc2)cc1	> 38.6 µg/mL
Cc1ccc(Sc2ncccc2C(N)=O)cc1	> 36.6 µg/mL
CC12CCC(C(=O)NCc3ccc(F)cc3)(OC1=O)C2(C)C (stereo not given)	44.2 µg/mL (≈ 145 µM)
Cc1ccc(C(O)c2ccc(-n3ccnc3)cc2)cc1 (stereo not given)	39.5 µg/mL (≈ 149 µM)
CS(=O)(=O)N1CCCC(C(=O)Nc2ccc(F)cc2)C1 (stereo not given)	> 45.1 µg/mL
CSCc1ccc(C(=O)Nc2ccc(C(N)=O)cc2)cc1	0.8 µg/mL (≈ 2.66 µM)
COCCCNC(=S)N1CCCC(c2nc3cc(C)c(C)cc3[nH]2)C1 (stereo not given)	53.2 µg/mL (≈ 148 µM)
Cc1cccn2c(=O)nc(SCC(=O)NC3CCCCC3)nc12	> 49.9 µg/mL
COCCNC(=O)COC(=O)c1cccnc1SC	> 42.6 µg/mL
O=C(O)CCC(=O)Nc1ccc(Oc2ncnc3cc(Cl)ccc23)nc1	> 55.9 µg/mL
Cc1ccc(OCCN2CCOCC2)cc1C	> 35.3 µg/mL
Cc1nc2ccccn2c1C(=O)NN=C1CCCC1	> 38.4 µg/mL
O=C(NNC(=S)NCCCN1CCOCC1)c1ccncc1	> 48.5 µg/mL
Cc1ccc(C23CC4CC(CC(C(N)=O)(C4)C2)C3)cc1	16.6 µg/mL (≈ 61.6 µM)
COc1ccc(S(=O)(=O)N2CCSCC2)cc1C(N)=O	25 µg/mL (≈ 79 µM)
COc1ccc(Nc2ccc(N3C(=O)CCC3=O)cc2[N+](=O)[O-])cn1	3.1 µg/mL (≈ 9.06 µM)
CCN(CC(=O)Nc1ccc(C(C)=O)cc1)CC(=O)Nc1ccc2c(c1)OCCO2.O=C(O)C(=O)O	> 75.2 µg/mL
CC(=O)c1ccc(Nc2c([N+](=O)[O-])ccc3nonc23)cc1	< 0.2 µg/mL
FC(F)(F)c1ccc(CSc2ccccn2)cc1	1.2 µg/mL (≈ 4.46 µM)
CC(=O)Nc1ccc(C(=O)NCC(c2ccco2)N(C)C)cc1 (stereo not given)	44.7 µg/mL (≈ 142 µM)
CC(C)(C)OC(=O)N1CCN(CCNC(=O)c2ccccc2)CC1	> 50 µg/mL

Now from value to molecule:

solubility kinetic	Structure (SMILES)
> 68.9 µg/mL	CC(=O)c1cccc(N2C(=O)CC(N3CCN(S(=O)(=O)c4ccccc4F)CC3)C2=O)c1 (stereo not given)
3.7 µg/mL (≈ 12.3 µM)	Cc1ccc(C)c(CN2C(=O)NC3(CCCCCC3)C2=O)c1
27.6 µg/mL (≈ 134 µM)	CC(=O)CC1(O)C(=O)Nc2ccccc21 (stereo not given)
8 µg/mL (≈ 25.4 µM)	Cn1c(=O)[nH]c(=O)c2cc(C(=O)c3cc(F)ccc3O)cnc21
0.3 µg/mL (≈ 1.06 µM)	COCc1cc(C)nc(Nc2ccccc2OC)c1C#N
> 45.8 µg/mL	Cn1c(=O)c(S(=O)C2CCCCC2)c(O)c2ccccc21 (stereo not given)
33.5 µg/mL (≈ 125 µM)	COC(=O)c1ccc2nc(-c3cccc(N)c3)cn2c1
0.7 µg/mL (≈ 2.55 µM)	Fc1ccc(-c2csc(-c3cccnc3)n2)cc1F
16.9 µg/mL (≈ 48.8 µM)	CCSc1ccccc1C(=O)N=C1NC(=O)CC2C(=O)NCCN12 (stereo not given)
48.5 µg/mL (≈ 142 µM)	COc1ccc(C2C(C(C)=O)=C(O)C(=O)N2c2ccc(F)cc2)cc1 (stereo not given)
39.7 µg/mL (≈ 144 µM)	O=C(NCC1COc2ccccc2O1)c1cccs1 (stereo not given)
3.1 µg/mL (≈ 10 µM)	CC(=O)CSc1nc(-c2ccccc2)c(-c2ccccc2)o1
> 51.5 µg/mL	CN(C(=O)Cn1nc(C(=O)O)c2ccccc2c1=O)C1CCCCC1
1.4 µg/mL (≈ 4.4 µM)	CSc1ccccc1NC(=O)c1cc(Cl)sc1Cl
< 0.6 µg/mL	O=C(Nc1ccccc1Cl)c1ccc2ccccc2c1
27 µg/mL (≈ 88.4 µM)	CC(=O)Nc1ccc(/C=C/c2nc3ccccc3[nH]c2=O)cc1
< 0.2 µg/mL	N#CCSc1nc(-c2ccccc2)nc2ccccc12
> 46.6 µg/mL	Cc1ccc(C(=O)NCC(=O)NCCCc2ccccc2)cc1
4.9 µg/mL (≈ 15.1 µM)	O=C(CCNC(=O)c1ccccc1)Nc1nc2ccccc2s1
14.1 µg/mL (≈ 40.5 µM)	Cc1ccccc1OCC(=O)OCC(=O)NCc1ccccc1Cl
6.2 µg/mL (≈ 22.9 µM)	c1ccc2nc(-c3ccc(-n4ccnc4)cc3)ccc2c1
12.9 µg/mL (≈ 51.1 µM)	Cc1ccnc(NC(=O)c2cc3ccccc3o2)c1
29.3 µg/mL (≈ 141 µM)	N/C(Cc1nc2ccccc2s1)=N\O
> 32 µg/mL	N#Cc1c(-c2ccccc2)[nH]c(=O)[nH]c1=O
> 43.6 µg/mL	COCCCn1c(=O)c2ccccc2n2c(=S)[nH]nc12

solubility kinetic	Structure (SMILES)
< 0.2 µg/mL	Cc1ccc2c(c1)c1nc3ccccc3nc1n2C
16.2 µg/mL (≈ 51.5 µM)	COc1ccccc1N1CCN(c2ccc([N+](=O)[O-])cn2)CC1
1.8 µg/mL (≈ 5.43 µM)	Cc1cccc(NC(=O)c2ccccc2NC(=O)c2ccccc2)n1
1.9 µg/mL (≈ 5.77 µM)	N#Cc1ccc(S(=O)(=O)N2CCN(c3ncccn3)CC2)cc1
> 50.1 µg/mL	COC(=O)c1ccccc1Oc1ccc(NC(=O)CCCl)cc1
23.4 µg/mL (≈ 94.2 µM)	CCOC(=O)c1sc(-c2ccccn2)nc1C
0.6 µg/mL (≈ 1.78 µM)	Cc1ccc(C(=O)CSc2nc(C(C)C)nc3ccccc23)cc1
39.9 µg/mL (≈ 124 µM)	COc1ccc(S(=O)(=O)NCCc2ccccc2)cc1OC
35.1 µg/mL (≈ 128 µM)	COCCn1cc(-c2csc(N)n2)c2ccccc21
> 34.2 µg/mL	O=C(O)c1ccccc1NCc1cccnc1
30.6 µg/mL (≈ 102 µM)	Cc1ccccc1NCN1C(=O)C2CCC(C)(C1=O)C2(C)C (stereo not given)
18 µg/mL (≈ 38.5 µM)	COC(=O)c1cc(NC(=O)COC(=O)CCc2nc3ccccc3c(=O)[nH]2)cc(C(=O)OC)c1
10.6 µg/mL (≈ 31.8 µM)	COc1ccccc1-n1cc(-c2ccccc2)c2c(=S)nc[nH]c21
> 43 µg/mL	CC(=O)/C(C#N)=C1\NC(=O)C(Cc2ccccc2C)S1 (stereo not given)
53.9 µg/mL (≈ 149 µM)	COc1ccc(-c2cc(C(=O)N3CCCC3)c3ccccc3n2)cc1OC
33.9 µg/mL (≈ 147 µM)	COC1C(C)=C(C)C(=O)N1Cc1ccccc1 (stereo not given)
6.4 µg/mL (≈ 22.1 µM)	CC(C)(C)c1ccc(CSc2nc(N)cc(=O)[nH]2)cc1
> 47.9 µg/mL	CC(=O)c1cccc(NC(=O)c2cc(C)nn2-c2ccccc2)c1
17.4 µg/mL (≈ 64.8 µM)	O=C(NCc1ccccc1)c1nc2ccccc2s1
42.3 µg/mL (≈ 143 µM)	CN(CCC(=O)c1ccccc1)CCC(=O)c1ccccc1
3.3 µg/mL (≈ 10.7 µM)	Fc1ccccc1CNC(=S)NCc1ccc(Cl)cc1
< 0.6 µg/mL	COc1ccccc1/C=N/OC(=O)c1ccc(C)cc1
44.3 µg/mL (≈ 146 µM)	O=C(CCNC(=O)c1ccccc1Cl)Nc1ccncc1
> 28.2 µg/mL	O=C(C=C1NCCN1)c1ccccc1
